Data set [1] deals with T1, mouse CB1R (Mus musculus, UniProt P47746).
T1 construct: crude membranes from mouse brain; from tissue; host or cells: mouse brain cortex (without cerebellum) membranes, C57Bl/6Jhsd mice
In words: Radioligand competition displacement binding, [3H]CP-55,940, mouse brain membranes. Conditions: [3H]CP-55,940 displacement, mouse brain membranes; read-out: CB1R mKi. Here is the method:
(§1) BNS compounds’ binding to CB1R and CB2R was assessed in competition displacement assays using [^3H]CP-55,940 as the radioligand and crude membranes from mouse brain or human cells overexpressing the CB1R or CB2R. All data were in triplicates with Ki values determined from three independent experiments. See SI for a detailed procedure.
Supplementary Experimental Methods
Brain membrane preparation for CB1R b i nd i ng . The mouse cortex, excluding the cerebellum, was dissected from 6-week-old C57Bl/6Jhsd mice (Harlan, Israel). The tissue was homogenized in 4 mL Buffer 1 (320 mM sucrose, 2 mM EDTA, 5 m M MgCl 2) using a glass-Teflon homogenizer and Hei-T ORQUE 200 (Heidolph; Cat# 17-012- 002- 25 -1) homogenizer set to 132 rpm. After homogenization, the mixture was centrifuged at 1,600 × g for 10 min at four °C, and the resulting supernatant was kept on ice. The pellet (P1) was discarded, and the remaining supernatant was subje cted to additional rounds of resuspension in 4 mL Buffer 1 followed by centrifugations, repeating this process three times. The pellets obtained from these centrifugations were discarded, and the three supernatant fractions were combined and subjected to higher-speed centrifugation at 39,000 × g for 15 min at f ou r °C. […] This resuspended pellet ( P 2 ) was incubated at 37 °C for 10 min and then centrifuged at 23, 000 × g for 10 min at 4°C.
After centrifugation, the pellet (P2) was resuspended in 5 mL Buffer 2 and further incubated at 30 °C for 40 min. Following this incubation, the suspension was centrifuged at 11,000 × g for 15 min at 4 °C. The pellet (P2) was resuspended in 2 mL Buffer 3 containing 50 mM TRIS HCl pH 7.4, 1 mM EDTA, and 3 mM MgCl 2. T h e protein concentration of the final suspension was determined using the BCA assay.
Subsequently, the suspension was diluted to a final concentration of 2 mg/mL in Buffer 3, aliquoted on ice, and stored at - 80 °C for further use.
(§2) CB1R and CB2R binding. Binding to the CB1R/CB2R was asse ss ed using competition displacement as says with [ 3H] CP -55,940 as the radioligand. Purified membranes from the mouse brain were utilized for CB1R assessment (as described above). Purified […]
membranes from cells overexpressing human CB2R ( Char les River CAT # A618) w e r e employed for CB2R evaluation.
For mouse CB1R binding assays, the novel compounds were dissolved in dimethyl sulfoxide (DMSO) to reach a final concentration of 10 mM. Each compound was then diluted in Buffer 3 (as described above) supplemented with 0.14% BSA, resulting in concentrations ranging from 10^-4 M to 10^-10 M. Triplicates of 100 µL of each concentration were dispensed into siliconized glass tubes. At the same time, 100 µL of Buffer 3 with 0.14% BSA was dispensed into three tubes as blanks. CB1R b r a i n membranes (20 µg) were added to each tube and diluted with 800 µL Buffer 3 with 0.14% BSA. Subsequently, 5 nM of [ 3H] CP -55,940 (100 µL) was added to each tube.
The tubes were sealed with parafilm and incubated with shaking (120 rpm) in a water bath at 30 °C for 1 hour. Following incubation, 2 mL of cold Buffer 4 (50 mM TRIS HCl pH 7.4, 1 mg/mL BSA) was added to each tube.
To harvest the content of each tube, a Brandel M-24R Vacuum Harvester was employed, with a wet WHATMAN GF/B filter paper (Fired) (one membrane for 12 tubes) placed in the harvester after being washed twice with Buffer 4. The filter membrane in the harvester absorbed the full content of each tube. Then, the filter membrane was wash ed six times with Buffer 4. Each filter -glass membrane tube wa s excised and transferred to a 20 mL glass tube co ntaining a 5 mL ULTIMA GOLD scintillation cocktail. […]

For data set [2], the target named is T2, human CB1R (Homo sapiens, UniProt P21554).
T2 construct: purchased PerkinElmer RBHCB1M400UA
In words: Radioligand competition displacement binding, [3H]CP-55,940, membranes with human CB1R. To be noted: for IC50: human CB1R, read-out: CB1R hIC50. Here is the method:
BNS compounds’ binding to CB1R and CB2R was assessed in competition displacement assays using [^3H]CP-55,940 as the radioligand and crude membranes from mouse brain or human cells overexpressing the CB1R or CB2R. All data were in triplicates with Ki values determined from three independent experiments. See SI for a detailed procedure. […]
(§3) Radioligand binding assays were performed to asse ss the binding affinity of the different compounds to hCB1R (RBHCB1M4 00UA; Per kinElmer) or hCB 2R
(§4) (RBXCB2 M400UA; PerkinElmer). Competition displacement as says w ere employed, […]
(§5) utilizing [3H] C P -55,940 as the radioligand and crude membranes from humans for CB1 R or CB2 R. T he compounds were tested at various concentrations (eight points with a five-fold serial dilution starting at two m M) , and their ability to displace [3H] CP - 55, 940 was evaluated. Upon completion of the binding assays, the reaction mixture was filtered through GF/C plates, followed by four washes with cold wash buffer. After drying for one hour, 50 μL of Perkin Elmer Microscint 20 cocktail was added to the filter plate wells, and the bound [3H] C P -55,940 radioligand was measured using a β counter. All data points were duplicated, and Ki values were determined from two independent experiments using GraphPad Prism 7.02 analysis software, extracted through nonlinear regression analysis. […]
For orientation: In a radioligand displacement assay an active substance lowers the binding of a labelled ligand.

In data set [3] the target is T3, human CB2R (Homo sapiens, UniProt P34972).
T3 construct: purchased PerkinElmer; Charles River RBXCB2M400UA; A618
In words: Radioligand competition displacement binding, [3H]CP-55,940, membranes with human CB2R. To be noted: [3H]CP-55,940 displacement, read-out: CB2R hKi. Here is the method: as §1
Supplementary Experimental Methods […]
as §2
membranes from cells overexpressing human CB2R ( Char les River CAT # A618) w e r e employed for CB2R evaluation. […]
as §3, §4, §5
MgCl 2. The tissue was homogenized using a glass -Teflon and Hei-T ORQUE 200 homogenizer (Heidolph; Cat#17- 012- 002- 25 -1) set to 132 rpm. The resulting suspen sion underwent centrifugation at 48,000 × g for 20 min at four °C, and the supernatant was discarded. The pellet obtained was homogenized again and subjected to a second centrifugation under the same conditions. Subsequently, the resulting pellet […]
mM EGTA, 9 mM MgCl 2, and 150 mM NaCl, followed by homogenization. The protein concentration of the suspension was determined using the BCA assay, and the suspen sion was diluted to a final concentration of 2 mg/mL in assay buffer. The prepared suspension was aliquoted on ice and stored at - 80 °C for further use.

The test system of data set [4] is HepG2 cells. In words: Cell viability assay (CellTiter Glo). To be noted: 72 h; for IC50: Homo sapiens. It counts as cell-based. The method, then: Cell viability assay. To assess the cell viability, which indicates the toxicity of the novel compounds, a total of 3,000 HepG2 cells were seeded into a 384-well plate. The compounds were then dispensed onto the cell plate using a Tecan D300e digital dispenser. Following compound addition, 35 μL CellTiter Glo reagent was added to all wells of the assay plate, and the plate was mixed for 30 sec on an or bital shaker to lyse cells. Subsequently, the plate was incubated at room temperature for 10 minutes. The luminescence signal was measured using a 384-well plate reader (EnVision). The obtained data were analyzed using XL-fit software (ID Business Solutions Ltd., Software version: XL fit 5. 5. 0. 5). The percentage of inhibition was calculated using the […]
Inhibition (%) = (1-Sample / ZPE) ×100
Sample represents the test compound's luminesc e nce signal, and ZPE represents the luminescence signal f r om the zer o-percent enzyme control.
(ATP-based viability assays read luminescence as a measure of living cells.)

Data set [5] deals with P-gp (MDR1) (Homo sapiens, UniProt P08183). In words: Bidirectional permeability in MDR1-MDCKII cells with and without GF120918. To be noted: dog. The method, then:
(§6) MDR1-MDCKII cells were seeded onto […] (PET) in a 96-well insert system. Test and reference compounds were administered to the apical (A-to-B) and basolateral (B-to-A) sides of the cell monolayer. Permeation of the compounds in both directions was assessed, with and without a P-glycoprotein (P-gp) inhibitor (GF120918). […] After a 2.5-h incubation period, each compound’s permeability and efflux ratio were calculated as described in the SI. […]
(§7) Bidirectional permeability assessment in MDR1-MDCK cells. Test and reference compounds were quantified using LC -MS/MS ana lysis based on th e peak ar ea r atio of analyte to internal standard (IS). T he apparent permeability coefficient (Papp) in cm/s was computed using the equation: Pa pp = (dCr/d t ) × V r / ( A × C 0), where dCr/ d t […]
(§8) represents the cumulative concentration of the compound in the receiver chamber over time (µM/s), Vr is the solution volume in the receiver chamber (0.075 mL on the apical side, 0.25 mL on the basolateral side), A is the surface area for transport (0.0804 cm2 f or the monolayer ar ea), and C0 is the initial concentration in the donor chamber ( µM) .
(§9) The efflux ratio was determined using the equation Efflux Ratio = P a pp ( B:
(§10) A ) / Pa pp (A: B) . […]
(§11) Additionally, the percent of lucifer yellow in the basolateral well was calculated using the equation:
(§12) Lucif er yellow = VV bbbbbbbbbbbbbbbbbbbb ×RR FFFF bbbbbbbbbbbbbbbbbbbb ×100 VV bbaaaaaa bbbb ×RRRRRR bbaaaaaa bbbb+VV bbbbbbbbbbbbbbbbbbbb ×RRFFFF bbbbbbbbbbbbbbbbbbbb wher e RFUApical and RFUBasolateral demote the r elative f luor escence unit values of lucif er yellow in the apical and basolateral wells, respectively, and VApical and VBasolateral represent the volumes of apical and basolateral wells (0.075 mL and 0.25 mL, r espectively) . T he % Lucif er Yellow should be less than 2, indicating minimal leakage. […]

For data set [6], the target named is P-gp (MDR1-MDCKII cells) (Homo sapiens, UniProt P08183). The description is as above. Here is the method:
as §6, §7, §8, §9, §10, §11, §12

Molecules are shown by their SMILES. Several values for one entry are separate records, joined by “and”; a condition that tells them apart may be missing. Equal values may be shown once. Read-outs that look alike come from different tables or passages of the source. A value given as a limit tells only on which side of the number the result lay.

This note sets out measurements from paper PMC12067444, “Synthesis and Pharmacological Characterization of Novel Peripheral Cannabinoid-1 Receptor Blockers Based on a Tricyclic Scaffold” (Journal of Medicinal Chemistry, 2025).

One may read the Papp A→B as the apparent permeability from the apical to the basolateral side of a cell layer. Broadly, the Papp B→A is the apparent permeability from the basolateral to the apical side of a cell layer. By efflux ratio is commonly meant a quotient of directional permeabilities that is used to spot active efflux.

Sequence of P-gp (MDR1) (P08183 whole entry): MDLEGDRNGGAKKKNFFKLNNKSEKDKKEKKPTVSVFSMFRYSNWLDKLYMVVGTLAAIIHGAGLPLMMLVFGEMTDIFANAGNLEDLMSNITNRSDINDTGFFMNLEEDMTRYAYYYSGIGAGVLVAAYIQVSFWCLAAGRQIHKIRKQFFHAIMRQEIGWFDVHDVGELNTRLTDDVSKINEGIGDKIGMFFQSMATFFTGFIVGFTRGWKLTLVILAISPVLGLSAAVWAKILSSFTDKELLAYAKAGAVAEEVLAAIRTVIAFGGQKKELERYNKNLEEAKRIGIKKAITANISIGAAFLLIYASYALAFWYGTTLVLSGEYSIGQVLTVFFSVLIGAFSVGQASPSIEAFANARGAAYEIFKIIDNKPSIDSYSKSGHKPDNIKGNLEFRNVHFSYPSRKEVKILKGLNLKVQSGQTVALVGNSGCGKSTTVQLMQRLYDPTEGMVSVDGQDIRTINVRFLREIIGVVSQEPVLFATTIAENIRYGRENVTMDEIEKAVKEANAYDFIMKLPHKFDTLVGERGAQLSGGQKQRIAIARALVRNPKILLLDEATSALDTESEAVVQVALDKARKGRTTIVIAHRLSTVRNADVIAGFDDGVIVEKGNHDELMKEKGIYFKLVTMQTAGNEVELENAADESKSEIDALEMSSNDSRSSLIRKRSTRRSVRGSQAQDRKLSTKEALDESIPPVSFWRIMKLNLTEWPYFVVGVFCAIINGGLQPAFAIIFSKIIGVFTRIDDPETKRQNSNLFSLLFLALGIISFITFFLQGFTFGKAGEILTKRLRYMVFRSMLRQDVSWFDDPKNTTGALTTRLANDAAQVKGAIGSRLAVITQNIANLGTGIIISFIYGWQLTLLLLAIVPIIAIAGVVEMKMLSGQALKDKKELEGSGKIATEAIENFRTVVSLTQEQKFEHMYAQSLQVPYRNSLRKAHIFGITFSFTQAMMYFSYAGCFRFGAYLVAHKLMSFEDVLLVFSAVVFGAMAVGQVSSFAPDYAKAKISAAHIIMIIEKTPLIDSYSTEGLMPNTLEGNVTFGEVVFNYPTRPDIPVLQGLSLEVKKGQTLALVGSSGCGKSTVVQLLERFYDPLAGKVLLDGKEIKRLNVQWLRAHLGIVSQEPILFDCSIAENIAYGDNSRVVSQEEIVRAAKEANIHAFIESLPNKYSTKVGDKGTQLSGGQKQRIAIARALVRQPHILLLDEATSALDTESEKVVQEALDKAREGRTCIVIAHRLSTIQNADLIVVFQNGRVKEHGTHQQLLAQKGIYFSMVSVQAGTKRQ
T1 sequence (P47746 whole entry): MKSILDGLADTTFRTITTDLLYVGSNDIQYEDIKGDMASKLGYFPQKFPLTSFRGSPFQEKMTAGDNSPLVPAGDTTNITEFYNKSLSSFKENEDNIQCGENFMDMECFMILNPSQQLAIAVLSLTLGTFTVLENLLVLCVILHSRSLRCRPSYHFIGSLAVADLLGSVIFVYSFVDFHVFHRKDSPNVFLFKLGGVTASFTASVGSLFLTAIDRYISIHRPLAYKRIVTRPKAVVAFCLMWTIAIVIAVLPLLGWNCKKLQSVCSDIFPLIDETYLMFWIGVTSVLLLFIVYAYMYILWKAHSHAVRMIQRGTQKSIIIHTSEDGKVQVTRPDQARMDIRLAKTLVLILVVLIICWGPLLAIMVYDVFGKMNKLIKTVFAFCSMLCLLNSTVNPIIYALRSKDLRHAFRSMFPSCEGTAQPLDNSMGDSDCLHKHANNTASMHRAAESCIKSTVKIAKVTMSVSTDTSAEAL
T2 sequence (P21554 whole entry): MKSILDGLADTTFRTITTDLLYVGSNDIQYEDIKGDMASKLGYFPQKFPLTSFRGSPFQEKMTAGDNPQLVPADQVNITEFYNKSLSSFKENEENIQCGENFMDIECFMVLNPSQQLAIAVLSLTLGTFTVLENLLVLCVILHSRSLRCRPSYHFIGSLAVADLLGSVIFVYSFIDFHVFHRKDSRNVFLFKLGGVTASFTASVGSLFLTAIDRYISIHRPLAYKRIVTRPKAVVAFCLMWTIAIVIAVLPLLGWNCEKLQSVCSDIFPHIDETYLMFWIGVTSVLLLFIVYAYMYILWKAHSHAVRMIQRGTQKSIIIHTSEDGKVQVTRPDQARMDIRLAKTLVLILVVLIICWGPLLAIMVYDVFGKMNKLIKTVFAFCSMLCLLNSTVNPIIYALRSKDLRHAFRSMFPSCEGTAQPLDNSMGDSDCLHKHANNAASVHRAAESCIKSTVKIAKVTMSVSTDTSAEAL
T3 sequence (P34972 whole entry): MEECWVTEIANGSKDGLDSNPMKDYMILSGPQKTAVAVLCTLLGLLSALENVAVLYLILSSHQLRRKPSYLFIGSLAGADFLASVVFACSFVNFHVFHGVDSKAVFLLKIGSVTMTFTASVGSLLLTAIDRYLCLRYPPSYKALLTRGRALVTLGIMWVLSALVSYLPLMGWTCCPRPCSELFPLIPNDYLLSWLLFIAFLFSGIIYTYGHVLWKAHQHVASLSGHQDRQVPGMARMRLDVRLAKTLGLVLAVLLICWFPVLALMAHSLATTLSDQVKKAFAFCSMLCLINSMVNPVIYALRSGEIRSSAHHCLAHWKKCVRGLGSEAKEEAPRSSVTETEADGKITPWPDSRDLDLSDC
Sequence of P-gp (MDR1-MDCKII cells) (P08183 whole entry): as the sequence (P08183 whole entry) above

Consider `CS(=O)(=O)NC1CCCOc2c1nn(-c1ccccc1Cl)c2-c1ccc(Cl)cc1` (stereo not shown) [BNS809, N-[2-(2-Chlorophenyl)-3-(4-chlorophenyl)-5,6,7,8-tetrahydrooxepino[3,2-c]pyrazol-8-yl]methanesulfonamide], for which the figures for the Ki in data set [1] and in data set [3] were 33.8 nM and above 9000 nM, respectively. Moreover, the IC50 in data set [2] was 8.5 nM.
As to `O=C(NC1CCCOc2c1nn(-c1ccccc1Cl)c2-c1ccc(Cl)cc1)C1CCN(S(=O)(=O)c2ccc(Cl)cc2)CC1` (stereo not shown) [BNS825, N-[2-(2-Chlorophenyl)-3-(4-chlorophenyl)-5,6,7,8-tetrahydrooxepino[3,2-c]pyrazol-8-yl]-1-(4-chlorophenyl)sulfonyl-piperidine-4-carboxamide], the Ki in data set [1] came to 1.6 nM; in data set [2] ([3H]CP-55,940 displacement, human CB1R membranes, read-out: CB1R hKi) it was 3.1 nM; in data set [3], 127 nM. The IC50 was 3.8 nM in data set [2], above 100000 nM in data set [4] (read-out: cell viability Absolute IC50) and above 100000 nM in data set [4] (read-out: cell viability relative IC50). In addition, the “Bottom (%) of cell viability inhibition curve” value in data set [4] was -11.62%. Also, in data set [4], the “Slope of cell viability inhibition curve” value is -0.21. For the same compound, in data set [4], the “Top (%) of cell viability inhibition curve” value is recorded as 6.27%.
`CCOC(=O)N1CCC(C(=O)NC2CCCOc3c2nn(-c2ccccc2Cl)c3-c2ccc(Cl)cc2)CC1` (stereo not shown) [BNS816, Ethyl-4-((2-(2-chlorophenyl)-3-(4-chlorophenyl)-5,6,7,8-tetrahydro-2H-oxepino[3,2-c]pyrazol-8-yl)carbamoyl)piperidine-1-carboxylate]: the Ki was 8.9 nM and 8.93 nM in data set [1]; 1530 nM in data set [3]. For the same compound, in data set [5] (MDCK-MDR1), the Papp A→B at 2.5 h was 6.99 ×10⁻⁶ cm/s. The Papp B→A at 2.5 h in data set [5] (MDCK-MDR1) is 5.37 ×10⁻⁶ cm/s. In addition, in data set [5] (MDCK-MDR1), the efflux ratio at 2.5 h worked out at 0.77. In addition, the recovery at 2.5 h in data set [5] (MDCK-MDR1, Mean recovery % A to B, without GF120918) is 41.6%; in data set [5] (MDCK-MDR1, Mean recovery % B to A, with GF120918) it was 61.4%; in data set [5] (MDCK-MDR1, Mean recovery % B to A, without GF120918), 48.8%. In addition, in data set [6] (MDR1-MDCKII cells), the P-gp substrate entry is recorded as “no”. Further, the “Rank Papp” value in data set [6] (MDR1-MDCKII permeability rank) is “Hi gh”.
